US11001802B2, “Surface of a vessel with polystyrene, nitrogen, oxygen and a static sessile contact angle for attachment and cultivation of cells” (Nunc A/S, priority 2008, dated 2021)

Assays:
HEK293 cells = test: HEK293 growth over three passages, total cell number (Example 22); type: cell-based, human; settings: Surface 4 and Nunclon Delta surface; 2.5 μM Y-27632
Description: EMEM (500 μl) supplemented with 10% FBS containing 5.0 μM Y-27632 was dispensed in wells of Multidish 24-well plates with Surface 4 or Nunclon Delta™ surface. Another 500 μl of EMEM supplemented with 10% FBS and containing HEK293 cells was added to the wells (2.0×10^4 cells/cm^2), and the cultures were incubated at 37° C. in a humidified atmosphere of 5% CO2 in air for 3 days. Cells were passaged by treatment with Trypsin/EDTA (Lonza, Verviers, Belgium) for two minutes at 37° C., and the total cell number was determined using a NucleoCount Cell Counter (Chemometec A/S, Allered, Denmark). For successive passages, HEK293 cells were seeded at 2.0×10^4 cells/cm^2. The growth of HEK293 cells on Surface 4 and Nunclon Delta™ surface was enhanced by the presence of 2.5 μM Y-27632 (FIG. 34).

human ES cell line H9 = test: Attachment and colony formation of H9 human ES cells on surface modified plates with Rho kinase inhibitors (crystal violet, image analysis); type: cell-based
Description: Human ES cells of the line H9, at passage 40 were maintained in MEF conditioned media on Nunclon Delta™ plates treated with a 1:30 dilution of growth factor reduced Matrigel™, prior to study. Cells were dissociated from the surface for passage by 1 mg/ml collagenase dissociation or by manual scraping.
These cells were then seeded onto surface modified plates 2, 3, 4 and 13 (12-well format) in the presence of increasing amounts one of the following Rho Kinase inhibitors: Y-27632 (from Sigma, St. Louis, Mo. or EMD, San Diego, Calif.), Fasudil (Sigma), or Hydroxyfasudil (Sigma), and maintained for 3 days, each day replacing the media and compound. At the end of day three, media was removed and the plates were stained with Crystal Violet (0.5% in water) to visualize colonies.
It was attempted to determine the optimal dose of Y-27632 to promote cell binding, by treating cells with a range of plating concentrations of Y-27632 for the first day of culture. After the first day in culture cells were treated on subsequent days with a 10 μM concentration of Y-27632. It was observed that the maximal concentration to stimulate attachment and growth of ES cells was 10 μM (FIG. 12) and that this occurred on surface modified plates 2, 3, 4, 13 and CellBIND™ (Corning, Corning, N.Y.).
The effect of treating the cells continuously with a single dose of Y-27632 on attachment and growth was also tested. The cells were dosed with 0, 1, 4, or 10 μM Y-27632 for 4 days. Some binding was observed on surface modified plates without treatment (0 μM), however the optimal concentration to stimulate attachment and growth of ES cells was 10 μM Y-27632 (Table 4) on surface modified plates 2, 3, 4, 13.

C[C@@H](N)[C@H]1CC[C@H](C(=O)Nc2ccncc2)CC1 [Surface Y-27632, Y-27632]
growth of HEK293 cells over 3 passages (HEK293 cells): enhanced
attachment of ES cell colonies by day three (human ES cell line H9; H9 on surface modified plates 2, 3, 4 and 13, crystal violet, Y-27632 at 10 μM): Best results
cell proliferation (human ES cell line H9; Matrigel treated plates with or without 10 μM Y-27632 (FIG. 14)): grow at a similar density as untreated cells
optimal concentration to stimulate attachment and growth of ES cells (human ES cell line H9; continuous 0, 1, 4 or 10 μM for 4 days, plates 2, 3, 4, 13): 10 µM
maximal concentration to stimulate attachment and growth of ES cells (human ES cell line H9; range of plating concentrations first day, then 10 μM, plates 2, 3, 4, 13 and CellBIND): 10 µM
